Measurements reported in ChEMBL document CHEMBL1201862, “PubChem BioAssay data set” (2004).
The source made the active and inactive calls.

Key:
[1] = target: Eukaryotic translation initiation factor 4E (Mus musculus, UniProt P63073); assay: eIF4E–eIF4G protein interaction inhibitors, dose response, biochemical, TR-FRET (AID 855); type: functional;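 note: potency for disrupting eIF4E binding to eIF4GI seen as loss of FRET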
Escherichia coli = assay: microbe, parasite or virus in culture
Paired box protein Pax-8 = Paired box protein Pax-8 (Homo sapiens, UniProt Q06710); assay: inhibitors of PAX8-driven TPO luciferase reporter, dose response, RMG-I cells, cherry-pick (AID 687027); type: functional, cell-based;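 note: luciferase reporter driven by Pax8 target thyroperoxidase promoter measured by SteadyGlo luminescence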
Chain of Paired box protein Pax-8 (Q06710 whole entry): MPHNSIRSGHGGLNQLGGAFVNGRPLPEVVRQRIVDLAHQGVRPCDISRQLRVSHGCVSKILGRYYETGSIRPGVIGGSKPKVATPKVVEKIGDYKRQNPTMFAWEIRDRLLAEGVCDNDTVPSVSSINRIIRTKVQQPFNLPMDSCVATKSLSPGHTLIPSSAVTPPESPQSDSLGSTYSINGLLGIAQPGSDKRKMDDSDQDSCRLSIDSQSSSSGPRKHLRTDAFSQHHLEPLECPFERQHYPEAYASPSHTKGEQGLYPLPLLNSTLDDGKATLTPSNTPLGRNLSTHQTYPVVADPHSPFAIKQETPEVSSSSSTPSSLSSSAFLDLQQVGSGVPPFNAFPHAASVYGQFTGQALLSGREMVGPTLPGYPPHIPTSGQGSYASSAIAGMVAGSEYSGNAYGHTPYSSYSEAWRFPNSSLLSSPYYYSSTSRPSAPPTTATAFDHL

[2] = Shn3 3'UTR reporter inhibitors, dose response, cell-based, Clone20 osteoblasts, firefly luciferase, cherry-picked (AID 624132); type: functional;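 note: firefly luciferase luminescence from reporter carrying the Shn3 3'UTR in osteoblasts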
[3] = HepG2 cell cytotoxicity, dose response, cytotoxicity control for Shn3 inhibitor project, CellTiter-Glo, cherry-picked (AID 624134); type: functional, cell-based
[4] = control 3'UTR Renilla luciferase suppression, dose response, counter-screen for Shn3 inhibitor project, cell-based, Clone20-Shn3RL, cherry-picked (AID 624133); type: functional
[5] = non-specific cell cytotoxicity, dose response, cytotoxicity control for PAX8 inhibitor project, plate reader, dry powder samples (AID 743021); type: functional, cell-based
SN12K1 = assay: cells; type: functional; conditions: Homo sapiens
P388/ADR = assay: cells; type: functional; conditions: Mus musculus
P388 = assay: cells; type: functional; conditions: Mus musculus
[6] = target: T1, Low molecular weight phosphotyrosine protein phosphatase (Homo sapiens, UniProt P24666); type: functional; conditions: read-out: IC50_Mean;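 note: Dose-response confirmation assay measuring inhibition of LMPTP enzyme activity by fluorescence intensity read-out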
T1 sequence (P24666 whole entry): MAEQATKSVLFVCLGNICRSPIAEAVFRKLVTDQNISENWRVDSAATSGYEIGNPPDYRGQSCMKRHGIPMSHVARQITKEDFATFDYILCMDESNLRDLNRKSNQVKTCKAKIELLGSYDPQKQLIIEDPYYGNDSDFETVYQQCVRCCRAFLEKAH

cells [7] = type: functional, cell-based
cells [8] = type: functional, cell-based; remark: listed apart in the source
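Throughout, for EC50: agonist potency from rise in intracellular calcium fluorescence.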

Chain of Eukaryotic translation initiation factor 4E (P63073 whole entry): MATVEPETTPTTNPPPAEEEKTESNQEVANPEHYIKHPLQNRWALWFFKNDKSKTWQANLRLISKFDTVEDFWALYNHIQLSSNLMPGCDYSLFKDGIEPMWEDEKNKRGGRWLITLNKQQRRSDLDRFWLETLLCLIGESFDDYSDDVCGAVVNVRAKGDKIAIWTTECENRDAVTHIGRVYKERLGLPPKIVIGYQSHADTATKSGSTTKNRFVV

Nc1nnc(CC(=O)N2CCCCC2)s1
IC50 [1]: > 64 µM (inactive)

CS(=O)(=O)c1ccc(Cl)c(NC(=O)COC(=O)CCc2c[nH]c3ccccc23)c1
AC50 (Escherichia coli): 31.5 µM (active)

COC1CC2C=C(C)C=CC=CC(=O)NC(c3ccccc3)CC=CCCC(O)CC(O)=C2C1=O (configuration not stated)
AC50 (Paired box protein Pax-8): 673 nM (active)
AC50 [2]: 629 nM (active)
AC50 [3]: 3.98 µM (active)
AC50 [4]: 1.48 µM (active)
AC50 [5]: 4.97 µM (active)

COc1ccc(OC)c(N(CCN2C(=O)c3ccccc3C2=O)C(=O)CCl)c1
AC50 (Paired box protein Pax-8): 966 nM (active)
AC50 [5]: 2.34 µM (active)

CC1=CCCC2C1(C)CCC(C)C2(C)Cc1cc(O)ccc1O (configuration not stated)
GI50 (SN12K1): 4.2 µM (inactive)
GI50 (P388/ADR): 1.63 µM (inactive)
GI50 (P388): 1.37 µM (inactive)

O=C(O)c1ccc(/C=N/NC(=O)c2cc3c(ccc4ccccc43)o2)cc1
IC50 [6]: 16.2 µM (active)

O=[N+]([O-])c1cccc(-c2ccc(/C=N/n3c(S)nnc3-c3ccccc3)o2)c1
IC50 [1]: > 64 µM (inactive)

CN(C)S(=O)(=O)c1ccc(C(=O)NCC(=O)N/N=C/c2ccccc2)cc1
IC50 (cells [7]): > 29.9 µM (inactive)
EC50 (cells [8]): > 29.9 µM (inactive)

NCc1c(O)ccc2ccccc12
IC50 (cells [7]): > 29.9 µM (inactive)
EC50 (cells [8]): > 29.9 µM (inactive)

CN(C)CCN1C(=O)c2cccc3cc(N)cc(c23)C1=O [AMONAFIDE]
GI50 (SN12K1): 2.15 µM (inactive)
GI50 (P388/ADR): 1.14 µM (inactive)
GI50 (P388): 0.524 µM (active)

C[C@H](N)C(=O)N[C@@H]1[C@H]2C(=C(O)C[C@@H](O)[C@@H]2O)C(=O)O[C@]1(C)C(Cl)Cl [BACTOBOLIN]
GI50 (SN12K1): 0.297 µM (active)
GI50 (P388/ADR): 0.303 µM (active)
GI50 (P388): 0.0807 µM (active)

O=P1(NCCCl)OCCCN1CCCl (configuration not stated) [IFOSFAMIDE]
GI50 (SN12K1): 371 µM (inactive)
GI50 (P388/ADR): 215 µM (inactive)
GI50 (P388): 232 µM (inactive)
